Measured values from publication PMC4715436, “The role of 2,4-dihydroxyquinoline (DHQ) in Pseudomonas aeruginosa pathogenicity” (PeerJ, 2016).

What was measured:
PqsR [1] = target: T1, PqsR (Pseudomonas aeruginosa, UniProt Q9I4X0); test: STD-NMR titration ([…] to […] DHQ, […] SUMO-PqsR-C87); EMSA also gave an apparent Kd of […]; assay type: binding; parameters: gene mvfR
Target sequence in this assay (Q9I4X0 87-332): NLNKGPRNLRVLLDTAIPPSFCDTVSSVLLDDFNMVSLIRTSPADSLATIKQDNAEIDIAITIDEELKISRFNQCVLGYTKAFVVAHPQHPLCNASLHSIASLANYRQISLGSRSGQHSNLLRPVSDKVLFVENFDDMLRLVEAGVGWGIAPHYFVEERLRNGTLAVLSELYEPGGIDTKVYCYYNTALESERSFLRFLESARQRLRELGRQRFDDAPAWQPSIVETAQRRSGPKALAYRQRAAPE

PqsR [2] = target: T1, PqsR; test: EMSA with lysate of E. coli Rosetta expressing His-SUMO-PqsR and biotinylated pqsA promoter DNA, semi-quantitative apparent Kd; assay type: biochemical; parameters: gene mvfR; recombinant PqsR, N-terminal His-tagged SUMO fusion
Target sequence in this assay (Q9I4X0 whole entry, the tested form may be a part): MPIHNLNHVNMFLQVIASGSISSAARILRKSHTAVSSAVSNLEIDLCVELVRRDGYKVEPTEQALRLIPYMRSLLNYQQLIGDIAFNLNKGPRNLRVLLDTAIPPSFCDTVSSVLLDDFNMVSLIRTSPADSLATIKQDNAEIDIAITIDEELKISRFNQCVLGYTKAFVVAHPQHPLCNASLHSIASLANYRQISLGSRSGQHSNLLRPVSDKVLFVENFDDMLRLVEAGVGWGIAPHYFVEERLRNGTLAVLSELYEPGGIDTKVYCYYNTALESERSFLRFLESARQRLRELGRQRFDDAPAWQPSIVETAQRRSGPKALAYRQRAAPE

[3] = system: His-SUMO-PqsR (Pseudomonas aeruginosa (PAO1?)); test: EMSA

Oc1cc(O)c2ccccc2n1 [DHQ, 2,4-dihydroxyquinoline]
Kd (PqsR [1]): ~450 nM

CCCCCCCc1[nH]c2ccccc2c(=O)c1O [PQS, 2-heptyl-3-hydroxy-4-quinolone]
Kd (PqsR [2]): 33 nM

Bio-pqsA (pqsA' promoter probe)
binding signal (fraction free probe) [3]: 0.0488
